According to ChEMBL document CHEMBL3046052, “New thiazolidinedione-5-acetic acid amide derivatives: synthesis, characterization and investigation of antimicrobial and cytotoxic properties” (Med Chem Res, 2012):
In brackets after ≈: the same amount, converted by molar mass.

Legend:
Escherichia coli = test: Antibacterial activity against Escherichia coli ATCC 35218 after 24 hr by NCCLS two-fold serial dilution method; assay type: functional; settings: ATCC 35218, 24 h
Cryptococcus neoformans = test: Antifungal activity against Cryptococcus neoformans clinical isolate after 48 hr by NCCLS two-fold serial dilution method; assay type: functional
HT-29 = test: Cytotoxicity against Homo sapiens (human) HT-29 cells after 24 hr by MTT assay; assay type: functional, cell-based; settings: HT-29, 24 h
Staphylococcus aureus = test: Antibacterial activity against Staphylococcus aureus ATCC 25923 after 24 hr by NCCLS two fold serial dilution method; assay type: functional; settings: ATCC 25923, 24 h
MCF7 = test: Cytotoxicity against Homo sapiens (human) MCF7 cells after 24 hr by MTT assay; assay type: functional, cell-based; settings: MCF7, 24 h
HeLa = test: Cytotoxicity against Homo sapiens (human) HeLa cells after 24 hr by MTT assay; assay type: functional, cell-based
Aspergillus niger = test: Antifungal activity against Aspergillus niger ATCC 6275 after 48 hr by NCCLS two-fold serial dilution method; assay type: functional; settings: ATCC 6275, 48 h
A549 = test: Cytotoxicity against Homo sapiens (human) A549 cells after 24 hr by MTT assay; assay type: functional, cell-based; settings: A549, 24 h
Candida albicans = test: Antifungal activity against Candida albicans ATCC 2091 after 48 hr by NCCLS two-fold serial dilution method; assay type: functional; settings: ATCC 2091, 48 h
Enterococcus faecalis = test: Antibacterial activity against Enterococcus faecalis ATCC 35550 after 24 hr by NCCLS two-fold serial dilution method; assay type: functional; settings: ATCC 35550, 24 h
Aspergillus flavus = test: Antifungal activity against Aspergillus flavus NCIM 524 after 48 hr by NCCLS two-foldserial dilution method; assay type: functional; settings: NCIM 524, 48 h
Pseudomonas aeruginosa = test: Antibacterial activity against Pseudomonas aeruginosa ATCC 25619 after 24 hr by NCCLS two-fold serial dilution method; assay type: functional; settings: ATCC 25619, 24 h

Compound	MIC (Escherichia coli)	MIC (Cryptococcus neoformans)	MIC (Staphylococcus aureus)	MIC (Aspergillus niger)	MIC (Candida albicans)	MIC (Enterococcus faecalis)	MIC (Aspergillus flavus)	MIC (Pseudomonas aeruginosa)	IC50 (HT-29)	IC50 (MCF7)	IC50 (HeLa)	IC50 (A549)
COc1cc(-c2nnc(NC(=O)CC3SC(=O)NC3=O)s2)cc(OC)c1OC (centres undefined)	16 µg/mL (≈ 37.7 µM)	32 µg/mL (≈ 75.4 µM)	16 µg/mL (≈ 37.7 µM)	16 µg/mL (≈ 37.7 µM)	16 µg/mL (≈ 37.7 µM)	16 µg/mL (≈ 37.7 µM)	16 µg/mL (≈ 37.7 µM)	16 µg/mL (≈ 37.7 µM)	35 µM	36 µM	33 µM	30 µM
CC1(C)S[C@@H]2[C@H](NC(=O)[C@H](N)c3ccccc3)C(=O)N2[C@H]1C(=O)O [AMPICILLIN]			2 µg/mL (≈ 5.72 µM)			2 µg/mL (≈ 5.72 µM)						
O=C(CC1SC(=O)NC1=O)Nc1nnc(-c2ccccc2Cl)s1 (centres undefined)	32 µg/mL (≈ 86.8 µM)	16 µg/mL (≈ 43.4 µM)	16 µg/mL (≈ 43.4 µM)	16 µg/mL (≈ 43.4 µM)	16 µg/mL (≈ 43.4 µM)	16 µg/mL (≈ 43.4 µM)	32 µg/mL (≈ 86.8 µM)	32 µg/mL (≈ 86.8 µM)	66 µM	84 µM	60 µM	62 µM
CC(=O)N1CCN(c2ccc(OCC3COC(Cn4ccnc4)(c4ccc(Cl)cc4Cl)O3)cc2)CC1 (centres undefined) [KETOCONAZOLE]		2 µg/mL (≈ 3.76 µM)		2 µg/mL (≈ 3.76 µM)	2 µg/mL (≈ 3.76 µM)		1 µg/mL (≈ 1.88 µM)					
O=C(CC1SC(=O)NC1=O)Nc1nnc(C(F)(F)F)s1 (centres undefined)	32 µg/mL (≈ 98.1 µM)	16 µg/mL (≈ 49 µM)	32 µg/mL (≈ 98.1 µM)	16 µg/mL (≈ 49 µM)	16 µg/mL (≈ 49 µM)	32 µg/mL (≈ 98.1 µM)	32 µg/mL (≈ 98.1 µM)	32 µg/mL (≈ 98.1 µM)	50 µM	62 µM	42 µM	60 µM
COc1ccc(-c2nnc(NC(=O)CC3SC(=O)NC3=O)s2)cc1OC (centres undefined)	16 µg/mL (≈ 40.6 µM)	16 µg/mL (≈ 40.6 µM)	16 µg/mL (≈ 40.6 µM)	32 µg/mL (≈ 81.1 µM)	16 µg/mL (≈ 40.6 µM)	32 µg/mL (≈ 81.1 µM)	16 µg/mL (≈ 40.6 µM)	16 µg/mL (≈ 40.6 µM)	42 µM	38 µM	40 µM	35 µM
O=C(CC1SC(=O)NC1=O)Nc1nnc(-c2ccccc2[N+](=O)[O-])s1 (centres undefined)	64 µg/mL (≈ 169 µM)	64 µg/mL (≈ 169 µM)	32 µg/mL (≈ 84.3 µM)	16 µg/mL (≈ 42.2 µM)	64 µg/mL (≈ 169 µM)	64 µg/mL (≈ 169 µM)	64 µg/mL (≈ 169 µM)	64 µg/mL (≈ 169 µM)	68 µM	78 µM	50 µM	72 µM

Further lines, with some results ahead:

MIC (Escherichia coli)	MIC (Cryptococcus neoformans)	MIC (Staphylococcus aureus)	MIC (Aspergillus niger)	MIC (Candida albicans)	MIC (Enterococcus faecalis)	MIC (Aspergillus flavus)	MIC (Pseudomonas aeruginosa)	Compound	IC50 (HT-29)	IC50 (MCF7)	IC50 (HeLa)	IC50 (A549)
32 µg/mL (≈ 77.4 µM)	16 µg/mL (≈ 38.7 µM)	8 µg/mL (≈ 19.4 µM)	16 µg/mL (≈ 38.7 µM)	16 µg/mL (≈ 38.7 µM)	32 µg/mL (≈ 77.4 µM)	16 µg/mL (≈ 38.7 µM)	32 µg/mL (≈ 77.4 µM)	O=C(CC1SC(=O)NC1=O)Nc1nnc(-c2ccc(Br)cc2)s1 (centres undefined)	60 µM	72 µM	52 µM	68 µM
8 µg/mL (≈ 22.7 µM)	8 µg/mL (≈ 22.7 µM)	4 µg/mL (≈ 11.4 µM)	4 µg/mL (≈ 11.4 µM)	8 µg/mL (≈ 22.7 µM)	4 µg/mL (≈ 11.4 µM)	8 µg/mL (≈ 22.7 µM)	8 µg/mL (≈ 22.7 µM)	O=C(CC1SC(=O)NC1=O)Nc1nnc(-c2ccc(F)cc2)s1 (centres undefined)	42 µM	60 µM	50 µM	50 µM
64 µg/mL (≈ 169 µM)	64 µg/mL (≈ 169 µM)	32 µg/mL (≈ 84.3 µM)	64 µg/mL (≈ 169 µM)	64 µg/mL (≈ 169 µM)	32 µg/mL (≈ 84.3 µM)	32 µg/mL (≈ 84.3 µM)	64 µg/mL (≈ 169 µM)	O=C(CC1SC(=O)NC1=O)Nc1nnc(-c2ccc([N+](=O)[O-])cc2)s1 (centres undefined)	60 µM	72 µM	50 µM	68 µM
16 µg/mL (≈ 45.9 µM)	32 µg/mL (≈ 91.8 µM)	8 µg/mL (≈ 23 µM)	32 µg/mL (≈ 91.8 µM)	16 µg/mL (≈ 45.9 µM)	4 µg/mL (≈ 11.5 µM)	32 µg/mL (≈ 91.8 µM)	16 µg/mL (≈ 45.9 µM)	Cc1ccc(-c2nnc(NC(=O)CC3SC(=O)NC3=O)s2)cc1 (centres undefined)	58 µM	52 µM	50 µM	46 µM
64 µg/mL (≈ 169 µM)	64 µg/mL (≈ 169 µM)	32 µg/mL (≈ 84.3 µM)	64 µg/mL (≈ 169 µM)	64 µg/mL (≈ 169 µM)	64 µg/mL (≈ 169 µM)	64 µg/mL (≈ 169 µM)	32 µg/mL (≈ 84.3 µM)	O=C(CC1SC(=O)NC1=O)Nc1nnc(-c2cccc([N+](=O)[O-])c2)s1 (centres undefined)	72 µM	67 µM	68 µM	78 µM
64 µg/mL (≈ 191 µM)	64 µg/mL (≈ 191 µM)	32 µg/mL (≈ 95.7 µM)	64 µg/mL (≈ 191 µM)	64 µg/mL (≈ 191 µM)	64 µg/mL (≈ 191 µM)	64 µg/mL (≈ 191 µM)	64 µg/mL (≈ 191 µM)	O=C(CC1SC(=O)NC1=O)Nc1nnc(-c2ccccc2)s1 (centres undefined)	78 µM	80 µM	62 µM	80 µM
32 µg/mL (≈ 86.8 µM)	16 µg/mL (≈ 43.4 µM)	4 µg/mL (≈ 10.8 µM)	16 µg/mL (≈ 43.4 µM)	16 µg/mL (≈ 43.4 µM)	32 µg/mL (≈ 86.8 µM)	16 µg/mL (≈ 43.4 µM)	32 µg/mL (≈ 86.8 µM)	O=C(CC1SC(=O)NC1=O)Nc1nnc(-c2ccc(Cl)cc2)s1 (centres undefined)	64 µM	68 µM	62 µM	60 µM
32 µg/mL (≈ 87.8 µM)	16 µg/mL (≈ 43.9 µM)	16 µg/mL (≈ 43.9 µM)	16 µg/mL (≈ 43.9 µM)	16 µg/mL (≈ 43.9 µM)	4 µg/mL (≈ 11 µM)	32 µg/mL (≈ 87.8 µM)	16 µg/mL (≈ 43.9 µM)	COc1ccc(-c2nnc(NC(=O)CC3SC(=O)NC3=O)s2)cc1 (centres undefined)	44 µM	42 µM	42 µM	45 µM
16 µg/mL (≈ 43.9 µM)	16 µg/mL (≈ 43.9 µM)	4 µg/mL (≈ 11 µM)	32 µg/mL (≈ 87.8 µM)	16 µg/mL (≈ 43.9 µM)	8 µg/mL (≈ 22 µM)	16 µg/mL (≈ 43.9 µM)	32 µg/mL (≈ 87.8 µM)	COc1cccc(-c2nnc(NC(=O)CC3SC(=O)NC3=O)s2)c1 (centres undefined)	56 µM	58 µM	54 µM	60 µM
